Source: patent US20140120167A1, “MULTIFUNCTIONAL CHEMO- AND MECHANICAL THERAPEUTICS” (WILLIAM MARSH RICE UNIVERSITY, priority 2012, published 2014)

Assays:
[1] = test system: HN31 squamous carcinoma cells; test: Short-term complex viability (RRV, Trypan Blue exclusion and cell concentration) 72 h after treatment; format: cell-based, human; details: for increase of cancer cell viability with plain (non-conjugated) nanocarriers compared with C225-conjugated carriers: GNP-C225 + PNB; for drug concentration required, drugs administered alone, to bring complex viability of cancer cells to the levels of PNB-enhanced release: no PNB
Experimental: Short term response in vitro to co-localized administration of drug nanocarriers, GNPs and laser pulses. We used EGFR-positive HN31 (cancer) cells and EGFR-negative NOM9 (normal) cells. […] After incubation, GNPs and drug carriers were washed off. […] PNB lifetime was obtained for individual cells. The short-term viability was evaluated 72 hours after the treatment of samples as a complex viability parameter RRV that included the viability level V1 (measured in % with Trypan Blue exclusion test) and the cell concentration C: RRV=C/C0*V1,*100% , where C0 is the cell concentration in the intact sample.
The ability of the PNB mechanism to overcome drug resistance and to reduce non-specific toxicity was evaluated with two common drugs and carrier types. Water-soluble doxorubicin was encapsulated into PEG-coated 90 nm Doxil liposomes that were conjugated with anti-EGFR antibody, C225 (L-Dox-C225). Non-soluble paclitaxel was loaded into 14 nm micelles conjugated to the same antibody (M-Ptx-C225). Each type of drug-loaded nanocarrier was administered separately with gold NP-C225 conjugates. Cancer (HN31) and normal (NOM9) cells were incubated identically with NP-C225 and nanocarriers. Drug doses were reduced to the level that provided relatively high viability of both cell types when treated with nanocarriers alone (without PNBs).
After incubation, NPs and nanocarriers were washed off, the cells were exposed to a single laser pulse (70 ps, 532 nm, 40 mJ cm^−2) and the PNB lifetime was obtained for individual cells. […] The cell concentration and viability were measured at 72 hours after the PNB generation as the complex viability parameter that was normalized by that in intact cells (FIG. 8). […] (FIGS. 8a and 8b).
Short-term therapeutic response to quadrapeutics and other treatments in vitro. […] The radiation treatment was administered within 60 min after PNB generation, i.e. when the intracellular concentration of the released drug was close to the maximal.

NOM9 cells = test: Clonogenic test (surviving fraction), normal cells; details: quadrapeutics, X-rays 4 Gy 6 hours after PNB
From the text: Evaluation of the long-term therapeutic response with a clonogenic test. We used EGFR-positive HN31 cells and EGFR-negative NOM9 cells. […] Thus the cells were exposed only to the internalized drug during the follow-up generation of PNBs. One to six hours afterwards, a single dose of X-rays (0-25 Gy) was applied.
To evaluate their colony-forming ability, the cells were trypsinized and replaced in 100 mm dishes in a free medium immediately after the treatment of samples. After 10 days of cultivation, the cells were stained with 0.5% crystal violet in absolute ethanol, and colonies with more than 50 cells were counted under a microscope. Plating efficiency was defined as the percentage of cells seeded that grew into colonies under a specific culture condition of a given cell line. […] All experiments were performed three times.

HN31 cells = test: Clonogenic test (surviving fraction), cancer cells; format: cell-based, human; details: Dox 2 μg mL^−1 or Ptx 33 ng mL^−1 + GNP 2.4×10^10 mL^−1 + laser 45 mJ cm^−2 + X-rays 4 Gy 6 hours after PNB

| SMILES | fold higher concentration required for drug alone vs PNB-enhanced release [1] [fold] | increase of cancer cell viability with plain (non-conjugated) nanocarriers compared with C225-conjugated carriers [1] | drug concentration required, drugs administered alone, to bring complex viability of cancer cells to the levels of PNB-enhanced release [1] [µg/mL] | viability of identically treated normal cells (NOM9 cells) | cancer cell growth (clonogenicity) after quadrapeutics, mode D+PNB+XR6 (HN31 cells) |
| --- | --- | --- | --- | --- | --- |
| COc1cccc2c1C(=O)c1c(O)c3c(c(O)c1C2=O)C[C@@](O)(C(=O)CO)C[C@@H]3O[C@H]1C[C@H](N)[C@H](O)[C@H](C)O1 [doxorubicin] | 18 | several-fold | 85 | – | – |
| CC(=O)O[C@H]1C(=O)[C@@]2(C)[C@H]([C@H](OC(=O)c3ccccc3)[C@]3(O)C[C@H](OC(=O)[C@H](O)[C@@H](NC(=O)c4ccccc4)c4ccccc4)C(C)=C1C3(C)C)[C@]1(OC(C)=O)CO[C@@H]1C[C@@H]2O [paclitaxel] | 15 | several-fold | 1 | close to that of intact cells | strong therapeutic effect |
